The values that follow come from patent US11306079B2, “3-(5-amino-pyrazin-2-yl)-benzenesulfonamide derivatives and related compounds as PI3K-gamma kinase inhibitors” (Incyte Corporation, priority 2017, dated 2022).

Structures can show the parent of a compound that is named as a salt.

The test system of assay [1] is Phosphorylated Ribosomal Protein S6 (RPS6) in THP-1 cells. In words: THP-1 RPS6 ELISA Assay. The assay is classed as cell-based. Particulars: Homo sapiens; serum starved THP-1 cells, 2 hours with compound, 10 nM MCP-1 for 15 minutes, Phospho-RPS6 ELISA; read-out: PI3Kγ_THP1_RPS6_ELISA IC50. As to the method: Example A. THP-1 RPS6 ELISA Assay
To measure the Phosphorylated Ribosomal Protein S6 (RPS6) in cell lysates, THP-1 cells (Human Acute Monocytic Leukemia) are purchased from ATCC (Manassas, Va.) and maintained in RPMI with 10% FBS (Gibco/Life Technologies, Carlsbad, Calif.). For the assay, THP-1 cells are serum starved overnight in RPMI, then plated in RPMI (2×10^5 cells/well in 90 μL) into 96-well flat-bottom tissue culture treated plates (Corning, Corning, N.Y.), in the presence or absence of a concentration range of test compounds. Covered plates are incubated for 2 hours at 37° C., 5% CO2 then treated with or without 10 nM MCP-1 (MYBioSource, San Diego, Calif.) for 15 minutes at 37° C., 5% CO2. Plates are centrifuged at 1600 RPM and supernatants are removed. Cells are lysed in Lysis Buffer (Cell Signaling, Danvers, Mass.) with Protease Inhibitor (Calbiochem/EMD, Germany), PMSF (Sigma, St Louis Mo.), HALTS (Thermo Fisher, Rockford, Ill.) for 30 min on wet ice. Cell lysates are frozen at −80° C. before testing. The lysates are tested in the Human/Mouse/Rat Phospho-RPS6 ELISA (R&D Systems, Inc. Minn, Minn.). The plate is measured using a microplate reader (SpectraMax M5—Molecular Devices, LLC Sunnyvale, Calif.) set to 450 nm with a wavelength correction of 540. IC50 determination is performed by fitting the curve of inhibitor percent inhibition versus the log of the inhibitor concentration using the GraphPad Prism 5.0 software.
In general terms: In an ELISA, binding on a coated surface is turned into a signal by an enzyme label.

In assay [2] the target is PI3Kγ (p110γ) Recombinant Human Protein (Homo sapiens (Human), UniProt P48736). As to the kind of experiment: PI3K-γ Scintillation Proximity Assay. It counts as biochemical. The note with it: 20 μM PIP2, 2 μM ATP, 13 nM PI3Kγ, 120 min, room temperature. The method in brief: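 Recombinant human p110γ (13 nM) phosphorylated 20 μM PIP2 with 2 μM ATP plus [γ-33P]ATP in 20 mM MOPS pH 6.7, 10 mM MgCl2, 5 mM DTT, 0.03% CHAPS, 2% DMSO, 120 min at room temperature. Radiolabelled product was captured on WGA SPA beads and counted. IC50 came from curves of percent solvent-control activity.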
PI3Kγ (p110γ) Recombinant Human Protein, sequence (P48736 whole entry): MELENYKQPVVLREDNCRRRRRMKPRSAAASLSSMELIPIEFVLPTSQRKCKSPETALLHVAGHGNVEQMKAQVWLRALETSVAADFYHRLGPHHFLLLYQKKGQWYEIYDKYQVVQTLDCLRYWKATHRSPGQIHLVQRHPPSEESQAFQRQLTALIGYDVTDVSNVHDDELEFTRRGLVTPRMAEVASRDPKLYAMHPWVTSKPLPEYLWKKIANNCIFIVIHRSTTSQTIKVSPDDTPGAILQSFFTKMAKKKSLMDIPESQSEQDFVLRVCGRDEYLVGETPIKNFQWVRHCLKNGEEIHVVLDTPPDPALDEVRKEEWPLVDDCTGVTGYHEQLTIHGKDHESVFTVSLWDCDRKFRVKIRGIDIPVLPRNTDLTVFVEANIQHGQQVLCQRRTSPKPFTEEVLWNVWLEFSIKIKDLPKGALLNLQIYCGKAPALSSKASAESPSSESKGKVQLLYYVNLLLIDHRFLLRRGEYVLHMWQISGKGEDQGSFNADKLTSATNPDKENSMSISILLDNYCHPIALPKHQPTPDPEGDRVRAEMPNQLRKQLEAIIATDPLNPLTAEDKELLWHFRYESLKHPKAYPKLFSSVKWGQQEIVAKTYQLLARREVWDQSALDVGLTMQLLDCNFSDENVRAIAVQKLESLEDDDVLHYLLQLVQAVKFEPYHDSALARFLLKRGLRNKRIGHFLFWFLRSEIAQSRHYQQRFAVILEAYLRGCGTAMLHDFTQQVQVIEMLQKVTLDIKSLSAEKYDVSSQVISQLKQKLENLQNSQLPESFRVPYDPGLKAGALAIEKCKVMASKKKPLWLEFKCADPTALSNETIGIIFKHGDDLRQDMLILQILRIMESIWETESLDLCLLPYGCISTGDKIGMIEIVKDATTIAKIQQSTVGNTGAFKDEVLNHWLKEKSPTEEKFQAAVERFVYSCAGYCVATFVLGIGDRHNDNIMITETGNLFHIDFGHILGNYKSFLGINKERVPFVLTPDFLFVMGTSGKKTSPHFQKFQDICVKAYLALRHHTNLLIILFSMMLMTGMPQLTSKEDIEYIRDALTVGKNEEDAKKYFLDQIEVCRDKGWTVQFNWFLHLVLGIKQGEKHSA
Background: Scintillation proximity formats need no separation of bound from free tracer.

In assay [3] the target is PI3Kδ (p110δ/p85α) Recombinant Human Protein (Homo sapiens (Human), UniProt O00329). In words: PI3Kδ Scintillation Proximity Assay. The assay is classed as biochemical. Particulars: 20 μM PIP2, 2 μM ATP, 3.4 nM PI3Kδ, 120 min, room temperature. The method in brief:
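Radiometric read-out: 33P-labelled PIP3 product captured on WGA SPA beads and counted, with IC50 fitted from percent activity relative to DMSO control. Enzyme (3.4 nM) was incubated 120 min at room temperature with 20 μM PIP2 and 2 μM ATP at pH 6.7, 2% DMSO.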

PI3Kδ (p110δ/p85α) Recombinant Human Protein, sequence (O00329 whole entry): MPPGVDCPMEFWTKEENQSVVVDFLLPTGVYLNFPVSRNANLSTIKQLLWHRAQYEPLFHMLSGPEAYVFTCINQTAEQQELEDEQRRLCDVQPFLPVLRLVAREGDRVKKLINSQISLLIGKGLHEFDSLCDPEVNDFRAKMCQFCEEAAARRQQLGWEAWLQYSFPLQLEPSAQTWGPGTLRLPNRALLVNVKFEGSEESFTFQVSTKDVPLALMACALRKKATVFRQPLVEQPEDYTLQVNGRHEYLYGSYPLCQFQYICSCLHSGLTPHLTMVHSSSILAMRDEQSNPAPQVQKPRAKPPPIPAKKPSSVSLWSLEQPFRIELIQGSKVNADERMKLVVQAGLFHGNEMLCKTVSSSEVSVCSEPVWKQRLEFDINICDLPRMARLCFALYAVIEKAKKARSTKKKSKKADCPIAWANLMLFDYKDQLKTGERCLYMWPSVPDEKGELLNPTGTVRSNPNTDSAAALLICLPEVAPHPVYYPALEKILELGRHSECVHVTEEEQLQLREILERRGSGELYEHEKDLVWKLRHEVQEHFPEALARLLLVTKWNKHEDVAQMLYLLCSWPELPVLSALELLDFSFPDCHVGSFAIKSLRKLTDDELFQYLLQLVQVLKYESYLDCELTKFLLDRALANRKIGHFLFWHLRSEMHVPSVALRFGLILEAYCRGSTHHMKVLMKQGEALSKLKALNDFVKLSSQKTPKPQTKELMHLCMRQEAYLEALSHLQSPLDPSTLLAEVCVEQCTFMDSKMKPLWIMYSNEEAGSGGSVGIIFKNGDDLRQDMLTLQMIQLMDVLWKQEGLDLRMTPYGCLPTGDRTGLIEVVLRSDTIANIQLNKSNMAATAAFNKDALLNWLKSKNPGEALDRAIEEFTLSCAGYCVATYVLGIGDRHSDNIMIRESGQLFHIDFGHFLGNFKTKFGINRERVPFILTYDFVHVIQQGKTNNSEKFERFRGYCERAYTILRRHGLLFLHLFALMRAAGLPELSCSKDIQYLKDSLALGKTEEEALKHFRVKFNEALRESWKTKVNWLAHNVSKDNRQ
PI3Kδ (p110δ/p85α) Recombinant Human Protein, sequence (P27986 whole entry partner): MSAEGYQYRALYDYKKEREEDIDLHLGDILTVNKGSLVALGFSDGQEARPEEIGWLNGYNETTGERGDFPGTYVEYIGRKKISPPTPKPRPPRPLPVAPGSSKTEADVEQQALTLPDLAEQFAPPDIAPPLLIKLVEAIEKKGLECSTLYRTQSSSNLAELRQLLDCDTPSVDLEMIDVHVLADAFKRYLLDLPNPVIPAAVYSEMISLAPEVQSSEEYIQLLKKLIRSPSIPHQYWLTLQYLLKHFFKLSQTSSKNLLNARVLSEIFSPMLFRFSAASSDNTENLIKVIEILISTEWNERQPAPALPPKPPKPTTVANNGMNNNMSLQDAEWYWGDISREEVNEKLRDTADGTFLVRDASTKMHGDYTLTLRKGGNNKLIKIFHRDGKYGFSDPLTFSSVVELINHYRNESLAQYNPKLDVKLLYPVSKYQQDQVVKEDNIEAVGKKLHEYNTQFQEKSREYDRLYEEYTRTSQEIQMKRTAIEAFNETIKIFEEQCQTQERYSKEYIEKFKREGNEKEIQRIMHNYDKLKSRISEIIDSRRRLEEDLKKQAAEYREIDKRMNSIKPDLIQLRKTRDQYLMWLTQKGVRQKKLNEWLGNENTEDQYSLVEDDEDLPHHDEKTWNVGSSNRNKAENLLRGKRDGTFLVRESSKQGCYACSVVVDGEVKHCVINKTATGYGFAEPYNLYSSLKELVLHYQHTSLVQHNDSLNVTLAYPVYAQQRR

`Cc1ccc(S(=O)(=O)NC23CCC(C#N)(C2)C3)cc1-c1cnc(N)c(-n2cccn2)n1` [Example 62, 3-(5-Amino-6-(1H-pyrazol-1-yl)pyrazin-2-yl)-N-(4-cyanobicyclo[2.1.1]hexan-1-yl)-4-methylbenzenesulfonamide Trifluoroacetate Salt]: the IC50 in assay [1], in assay [2] and in assay [3] was no more than 100 nM throughout.
Turning to `CNC(=O)OCC12CC(NS(=O)(=O)c3ccc(C)c(-c4cnc(N)c(-n5cncn5)n4)c3)(C1)C2` [Example 31, (3-(3-(5-Amino-6-(1H-1,2,4-triazol-1-yl)pyrazin-2-yl)-4-methylphenylsulfonamido)bicyclo[1.1.1]pentan-1-yl)methyl Methylcarbamate Trifluoroacetate Salt], the half-inhibitory concentration (IC50) (commonly the midpoint of a concentration-inhibition curve) was no more than 500 nM in assay [1], no more than 100 nM in assay [2] and no more than 500 nM in assay [3].
On to `O=C(O)C(F)(F)F.[2H]C([2H])([2H])c1ccc(S(=O)(=O)NC23CNC(C2)C3)cc1-c1cnc(N)c(-c2cnc(C3CC3)s2)n1` [Example 55, 3-(5-Amino-6-(2-cyclopropylthiazol-5-yl)pyrazin-2-yl)-N-(2-azabicyclo[2.1.1]hexan-4-yl)-4-(methyl-d3)benzenesulfonamide trifluoroacetate salt], for which the IC50 is no more than 500 nM in assay [1], no more than 100 nM in assay [2] and no more than 100 nM in assay [3].
Take `Cc1ccc(S(=O)(=O)NC23COC(CO)(C2)C3)cc1-c1cnc(N)c(-n2cncn2)n1` [Example 27, 3-(5-Amino-6-(1H-1,2,4-triazol-1-yl)pyrazin-2-yl)-N-(1-(hydroxymethyl)-2-oxabicyclo[2.1.1]hexan-4-yl)-4-methylbenzenesulfonamide trifluoroacetate salt]: the half-maximal inhibitory concentration (IC50) in assay [1] is no more than 500 nM; in assay [2], no more than 100 nM; in assay [3] it was no more than 500 nM.
`Cc1ncc(-c2cc(-c3cc(S(=O)(=O)NC45CC(CO)(C4)C5)ccc3C)cnc2N)s1` [Example 87, 3-(6-amino-5-(2-methylthiazol-5-yl)pyridin-3-yl)-N-(3-(hydroxymethyl)bicyclo[1.1.1]pen-tan-1-yl)-4-methylbenzenesulfonamide]: the 50% inhibitory concentration (IC50) in assay [1], in assay [2] and in assay [3] was no more than 100 nM in each case.
For `Cc1ccc(S(=O)(=O)NC23CCC(CO)(C2)C3)cc1-c1cnc(N)c(-c2cn(C)nc2C)n1` [Example 13, 3-(5-Amino-6-(1,3-dimethyl-1H-pyrazol-4-yl)pyrazin-2-yl)-N-(4-(hydroxymethyl)bicyclo[2.1.1]hexan-1-yl)-4-methylbenzenesulfonamide trifluoroacetate salt], the half-maximal inhibitory concentration (IC50) was no more than 500 nM in assay [1], no more than 100 nM in assay [2] and no more than 500 nM in assay [3].
Take `Cc1ncc(-c2nc(-c3cc(S(=O)(=O)NC45CC(CO)(C4)C5)ccc3C)cnc2N)s1` [Example 3, 3-(5-Amino-6-(2-methylthiazol-5-yl)pyrazin-2-yl)-N-(3-(hydroxymethyl)bicyclo[1.1.1]pentan-1-yl)-4-methylbenzenesulfonamide trifluoroacetate salt]: the IC50 in assay [1], in assay [2] and in assay [3] was no more than 100 nM throughout.
In the case of `[2H]C([2H])([2H])c1ccc(S(=O)(=O)NC23CC(CO)(C2)C3)cc1-c1cnc(N)c(-n2cncn2)n1` [Example 49, 3-(5-Amino-6-(1H-1,2,4-triazol-1-yl)pyrazin-2-yl)-N-(3-(hydroxymethyl)bicyclo[1.1.1]pentan-1-yl)-4-(methyl-d3)benzenesulfonamide Trifluoroacetate Salt], the figures for the 50% inhibitory concentration (IC50) in assay [1], in assay [2] and in assay [3] were no more than 500 nM, no more than 100 nM and no more than 100 nM, respectively.
On to `Cc1ccc(S(=O)(=O)NC23COC(CO)(C2)C3)cc1-c1cnc(N)c(-c2cn(C)nc2C)n1` [Example 14, 3-(5-Amino-6-(1,3-dimethyl-1H-pyrazol-4-yl)pyrazin-2-yl)-N-(1-(hydroxymethyl)-2-oxabicyclo[2.1.1]hexan-4-yl)-4-methylbenzenesulfonamide trifluoroacetate salt], for which the IC50 in assay [1] was no more than 500 nM; in assay [2], no more than 100 nM; in assay [3] it was no more than 500 nM.
As for `[2H]C([2H])([2H])c1ccc(S(=O)(=O)NC23CCC(C#N)(C2)C3)cc1-c1cnc(N)c(-c2cnc(C)s2)n1` [Example 65, 3-(5-Amino-6-(2-methylthiazol-5-yl)pyrazin-2-yl)-N-(4-cyanobicyclo[2.1.1]hexan-1-yl)-4-(methyl-d3)benzenesulfonamide trifluoroacetate salt], the IC50 in assay [1], in assay [2] and in assay [3] was no more than 100 nM each time.
`[2H]C([2H])([2H])c1ccc(S(=O)(=O)NC23CCC(C#N)(C2)C3)cc1-c1cnc(N)c(-c2ccncn2)n1` [Example 72, 3-(5-Amino-6-(pyrimidin-4-yl)pyrazin-2-yl)-N-(4-cyanobicyclo[2.1.1]hexan-1-yl)-4-(methyl-d3)benzenesulfonamide trifluoroacetate salt]: the IC50 in assay [1], in assay [2] and in assay [3] was no more than 100 nM throughout.
For `Cc1ccc(S(=O)(=O)NC23CCC(C#N)(C2)C3)cc1-c1cnc(N)c(-c2ncn(C)n2)n1` [Example 46, 3-(5-Amino-6-(1-methyl-1H-1,2,4-triazol-3-yl)pyrazin-2-yl)-N-(4-cyanobicyclo[2.1.1]hexan-1-yl)-4-methylbenzenesulfonamide Trifluoroacetate Salt], the half-maximal inhibitory concentration (IC50) in assay [1] is no more than 500 nM; in assay [2], no more than 100 nM; in assay [3], no more than 100 nM.
As to `Cc1cc(-c2nc(-c3cc(S(=O)(=O)NC45CCC(CO)(CC4)OC5)ccc3C)cnc2N)ccn1` [Example 18, 3-(5-Amino-6-(2-methylpyridin-4-yl)pyrazin-2-yl)-N-(1-(hydroxymethyl)-2-oxabicyclo[2.2.2]octan-4-yl)-4-methylbenzenesulfonamide Trifluoroacetate Salt], the values for the concentration for half-maximal inhibition (IC50) in assay [1], in assay [2] and in assay [3] were no more than 500 nM, no more than 100 nM and no more than 500 nM, respectively.
For the compound `[2H]C([2H])([2H])c1ccc(S(=O)(=O)NC23CCC(O)(C2)C3)cc1-c1cnc(N)c(-c2ccncn2)n1` [Example 80, 3-(5-Amino-6-(pyrimidin-4-yl)pyrazin-2-yl)-N-(4-hydroxybicyclo[2.1.1]hexan-1-yl)-4-(methyl-d3)benzenesulfonamide trifluoroacetate salt], the IC50 in assay [1], in assay [2] and in assay [3] was no more than 100 nM throughout.
Turning to `[2H]C([2H])([2H])c1ccc(S(=O)(=O)NC23CC(C#N)(C2)C3)cc1-c1cnc(N)c(-c2cnco2)n1` [Example 73, 3-(5-Amino-6-(oxazol-5-yl)pyrazin-2-yl)-N-(3-cyanobicyclo[1.1.1]pentan-1-yl)-4-(methyl-d3)benzenesulfonamide trifluoroacetate salt], the half-inhibitory concentration (IC50) in assay [1], in assay [2] and in assay [3] was no more than 100 nM each time.
As for `Cc1ccc(S(=O)(=O)NC23CCC(C#N)(C2)C3)cc1-c1cnc(N)c(-c2cn(C)nc2C)c1` [Example 82, 3-(6-Amino-5-(1,3-dimethyl-1H-pyrazol-4-yl)pyridin-3-yl)-N-(4-cyanobicyclo[2.1.1]hexan-1-yl)-4-methylbenzenesulfonamide], the IC50 in assay [1] was no more than 1000 nM; in assay [2], no more than 100 nM; in assay [3], no more than 500 nM.
On the same counts, the results for `[2H]C([2H])([2H])c1ccc(S(=O)(=O)NC23CCC(O)(C2)C3)cc1-c1cnc(N)c(-c2cnco2)n1` [Example 74, 3-(5-Amino-6-(oxazol-5-yl)pyrazin-2-yl)-N-(4-hydroxybicyclo[2.1.1]hexan-1-yl)-4-(methyl-d3)benzenesulfonamide trifluoroacetate salt] are no more than 100 nM, no more than 100 nM and no more than 500 nM.
On the same counts, the results for `Cc1ncc(-c2nc(-c3cc(S(=O)(=O)NC45CCC(C#N)(C4)C5)ccc3C)cnc2N)s1` [Example 2, 3-(5-Amino-6-(2-methylthiazol-5-yl)pyrazin-2-yl)-N-(4-cyanobicyclo[2.1.1]hexan-1-yl)-4-methylbenzenesulfonamide trifluoroacetate salt] are no more than 100 nM, no more than 100 nM and no more than 100 nM.
